Here are results for 34 compounds from patent publication US11820766B2, “Monoacylglycerol lipase modulators” (Janssen Pharmaceutica NV, priority 2018, dated 2023).

The target of this assay is T1, human MGL from HeLa cells (Homo sapiens, UniProt Q99685).
T1 construct: combining endogenously expressed MGL from HeLa cells with test compounds; endogenous in cells; host or cells: HeLa cells / cell homogenates
T1 sequence (Q99685 1-303): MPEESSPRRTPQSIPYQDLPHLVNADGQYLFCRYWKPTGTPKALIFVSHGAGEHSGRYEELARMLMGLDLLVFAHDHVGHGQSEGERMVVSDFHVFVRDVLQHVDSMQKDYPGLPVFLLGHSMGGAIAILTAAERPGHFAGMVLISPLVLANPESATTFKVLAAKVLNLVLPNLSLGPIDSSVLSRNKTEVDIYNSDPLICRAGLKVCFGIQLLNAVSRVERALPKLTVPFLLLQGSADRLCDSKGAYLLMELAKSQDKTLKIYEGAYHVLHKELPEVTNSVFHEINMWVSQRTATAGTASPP
Nature of the assay: In vitro MGL activity assay: [glycerol-1,3-3H]-oleyl glycerol cleavage by MGL from HeLa cells. The format is biochemical. The conditions noted are these: 300 nM [Glycerol-1,3-3H]-oleyl glycerol, one hour incubation. The source says: MGL is the predominant hydrolase in HeLa cells/cell homogenates.
One may read the IC50 as the point on the concentration scale where inhibition reaches its midpoint. Higher therefore signals weaker potency in that assay. With `Cn1nc2c(c1-c1ccccc1)CCN(C(=O)c1cccc3[nH]ncc13)C2` [Example 65, (1H-Indazol-4-yl)(2-methyl-3-phenyl-2,4,5,7-tetrahydro-6H-pyrazolo[3,4-c]pyridin-6-yl)methanone], the IC50 came out at 0.101 µM.
Under `Cn1nc2c(c1-c1ccccc1)CCN(C(=O)c1n[nH]c3ccccc13)C2` [Example 66, (1H-Indazol-3-yl)(2-methyl-3-phenyl-2,4,5,7-tetrahydro-6H-pyrazolo[3,4-c]pyridin-6-yl)methanone] stands 0.3 µM; under `Cn1nc2c(c1-c1ccccc1)CCN(C(=O)c1cccc3cn[nH]c13)C2` [Example 67, (1H-Indazol-7-yl)(2-methyl-3-phenyl-2,4,5,7-tetrahydro-6H-pyrazolo[3,4-c]pyridin-6-yl)methanone], 1.63 µM; under `Cn1nc2c(c1-c1ccccc1)CCN(C(=O)c1ccc3cn[nH]c3c1)C2` [Example 68, (1H-Indazol-6-yl)(2-methyl-3-phenyl-2,4,5,7-tetrahydro-6H-pyrazolo[3,4-c]pyridin-6-yl)methanone], 2.19 µM.
Under `Cn1nc2c(c1-c1ccccc1)CCN(C(=O)c1n[nH]c3c(Cl)cccc13)C2` [Example 69, (7-Chloro-1H-indazol-3-yl)(2-methyl-3-phenyl-2,4,5,7-tetrahydro-6H-pyrazolo[3,4-c]pyridin-6-yl)methanone] stands 0.662 µM; under `Cn1nc2c(c1-c1ccccc1)CCN(C(=O)c1nn(C)c3ccccc13)C2` [Example 70, (1-Methyl-1H-indazol-3-yl)(2-methyl-3-phenyl-2,4,5,7-tetrahydro-6H-pyrazolo[3,4-c]pyridin-6-yl)methanone], 0.38 µM.
In the case of `Cn1nc2c(c1-c1ccccc1)CCN(C(=O)c1ccc3[nH]cnc3c1)C2` [Example 71, (1H-Benzo[d]imidazol-5-yl)(2-methyl-3-phenyl-2,4,5,7-tetrahydro-6H-pyrazolo[3,4-c]pyridin-6-yl)methanone] it was 1.01 µM.
Regarding `Cn1nc2c(c1-c1ccccc1)CCN(C(=O)c1cccc3[nH]c(C(F)(F)F)nc13)C2` [Example 72, (2-Methyl-3-phenyl-2,4,5,7-tetrahydro-6H-pyrazolo[3,4-c]pyridin-6-yl)(2-(trifluoromethyl)-1H-benzo[d]imidazol-4-yl)methanone], half-maximal inhibition (IC50) was put at 2.32 µM.
Under `Cn1nc2c(c1-c1ccccc1)CCN(C(=O)c1ccn3nccc3c1)C2` [Example 73, (2-Methyl-3-phenyl-2,4,5,7-tetrahydro-6H-pyrazolo[3,4-c]pyridin-6-yl)(pyrazolo[1,5-a]pyridin-5-yl)methanone] stands 2.5 µM.
In the case of `Cn1nc2c(c1-c1ccccc1)CCN(C(=O)c1cnn3ccccc13)C2` [Example 74, (2-Methyl-3-phenyl-2,4,5,7-tetrahydro-6H-pyrazolo[3,4-c]pyridin-6-yl)(pyrazolo[1,5-a]pyridin-3-yl)methanone] it was 0.613 µM; in that of `Cn1nc2c(c1-c1ccccc1)CCN(C(=O)c1cccc3ccnn13)C2` [Example 75, (2-Methyl-3-phenyl-2,4,5,7-tetrahydro-6H-pyrazolo[3,4-c]pyridin-6-yl)(pyrazolo[1,5-a]pyridin-7-yl)methanone], 1.8 µM; in that of `Cn1nc2c(c1-c1ccccc1)CCN(C(=O)c1ncn3ccccc13)C2` [Example 76, Imidazo[1,5-a]pyridin-1-yl(2-methyl-3-phenyl-2,4,5,7-tetrahydro-6H-pyrazolo[3,4-c]pyridin-6-yl)methanone], 6.11 µM.
In turn, `Cn1nc2c(c1-c1ccccc1)CCN(C(=O)c1ccc3cncn3c1)C2` [Example 77, Imidazo[1,5-a]pyridin-6-yl(2-methyl-3-phenyl-2,4,5,7-tetrahydro-6H-pyrazolo[3,4-c]pyridin-6-yl)methanone] had an IC50 of 5.16 µM.
Under `Cn1nc2c(c1-c1ccccc1)CCN(C(=O)c1ccn3cncc3c1)C2` [Example 78, Imidazo[1,5-a]pyridin-7-yl(2-methyl-3-phenyl-2,4,5,7-tetrahydro-6H-pyrazolo[3,4-c]pyridin-6-yl)methanone] stands 2 µM.
Under `Cn1nc2c(c1-c1ccccc1)CCN(C(=O)c1cccc3cncn13)C2` [Example 79, Imidazo[1,5-a]pyridin-5-yl(2-methyl-3-phenyl-2,4,5,7-tetrahydro-6H-pyrazolo[3,4-c]pyridin-6-yl)methanone] stands 1.19 µM.
Under `Cn1nc2c(c1-c1ccccc1)CCN(C(=O)c1cccc3nccn13)C2` [Example 80, Imidazo[1,2-a]pyridin-5-yl(2-methyl-3-phenyl-2,4,5,7-tetrahydro-6H-pyrazolo[3,4-c]pyridin-6-yl)methanone] stands 2.33 µM.
`Cn1nc2c(c1-c1ccccc1)CCN(C(=O)c1cnc3ccccn13)C2` [Example 81, Imidazo[1,2-a]pyridin-3-yl(2-methyl-3-phenyl-2,4,5,7-tetrahydro-6H-pyrazolo[3,4-c]pyridin-6-yl)methanone] gave an IC50 of 1.32 µM.
`Cc1nc2cccc(Cl)n2c1C(=O)N1CCc2c(nn(C)c2-c2ccccc2)C1` [Example 82, (5-Chloro-2-methylimidazo[1,2-a]pyridin-3-yl)(2-methyl-3-phenyl-2,4,5,7-tetrahydro-6H-pyrazolo[3,4-c]pyridin-6-yl)methanone]: the IC50 was determined as 4.81 µM.
Under `Cn1nc2c(c1-c1ccccc1)CCN(C(=O)c1c[nH]c3ccncc13)C2` [Example 83, (2-Methyl-3-phenyl-2,4,5,7-tetrahydro-6H-pyrazolo[3,4-c]pyridin-6-yl)(1H-pyrrolo[3,2-c]pyridin-3-yl)methanone] stands 1.5 µM; under `Cn1nc2c(c1-c1ccccc1)CCN(C(=O)c1ccnc3c1ccn3C)C2` [Example 84, (1-Methyl-1H-pyrrolo[2,3-b]pyridin-4-yl)(2-methyl-3-phenyl-2,4,5,7-tetrahydro-6H-pyrazolo[3,4-c]pyridin-6-yl)methanone], 0.0483 µM.
For `Cn1nc2c(c1-c1ccccc1)CCN(C(=O)c1cccc3ncnn13)C2` [Example 85, [1,2,4]Triazolo[1,5-a]pyridin-5-yl(2-methyl-3-phenyl-2,4,5,7-tetrahydro-6H-pyrazolo[3,4-c]pyridin-6-yl)methanone], the IC50 is 7.14 µM.
In the case of `Cn1nc2c(c1-c1ccccc1)CCN(C(=O)c1ccnc3ccccc13)C2` [Example 86, (2-Methyl-3-phenyl-2,4,5,7-tetrahydro-6H-pyrazolo[3,4-c]pyridin-6-yl)(quinolin-4-yl)methanone] it was 0.0324 µM; in that of `Cn1nc2c(c1-c1ccccc1)CCN(C(=O)c1cncc3ccccc13)C2` [Example 87, Isoquinolin-4-yl(2-methyl-3-phenyl-2,4,5,7-tetrahydro-6H-pyrazolo[3,4-c]pyridin-6-yl)methanone], 0.0398 µM.
Under `Cn1nc2c(c1-c1ccccc1)CCN(C(=O)c1nccc3ccccc13)C2` [Example 88, Isoquinolin-1-yl(2-methyl-3-phenyl-2,4,5,7-tetrahydro-6H-pyrazolo[3,4-c]pyridin-6-yl)methanone] stands 0.0473 µM; under `Cn1nc2c(c1-c1ccccc1)CCN(C(=O)c1cccc3ncccc13)C2` [Example 89, (2-Methyl-3-phenyl-2,4,5,7-tetrahydro-6H-pyrazolo[3,4-c]pyridin-6-yl)(quinolin-5-yl)methanone], 0.056 µM; under `Cn1nc2c(c1-c1ccccc1)CCN(C(=O)c1ccc3ncccc3c1)C2` [Example 90, (2-Methyl-3-phenyl-2,4,5,7-tetrahydro-6H-pyrazolo[3,4-c]pyridin-6-yl)(quinolin-6-yl)methanone], 0.227 µM.
As to `CCn1nc2c(c1-c1ccccc1)CCN(C(=O)c1ccc3ncccc3c1)C2` [Example 91, (2-Ethyl-3-phenyl-2,4,5,7-tetrahydro-6H-pyrazolo[3,4-c]pyridin-6-yl)(quinolin-6-yl)methanone], the IC50 was 0.781 µM.
In the case of `Cn1nc2c(c1-c1ccccc1)CCN(C(=O)c1cccc3cnccc13)C2` [Example 92, Isoquinolin-5-yl(2-methyl-3-phenyl-2,4,5,7-tetrahydro-6H-pyrazolo[3,4-c]pyridin-6-yl)methanone] it was 0.108 µM.
Under `Cn1nc2c(c1-c1ccccc1)CCN(C(=O)c1cccc3cccnc13)C2` [Example 93, (2-Methyl-3-phenyl-2,4,5,7-tetrahydro-6H-pyrazolo[3,4-c]pyridin-6-yl)(quinolin-8-yl)methanone] stands 0.126 µM; under `Cn1nc2c(c1-c1ccccc1)CCN(C(=O)c1ccc3ccccc3n1)C2` [Example 94, (2-Methyl-3-phenyl-2,4,5,7-tetrahydro-6H-pyrazolo[3,4-c]pyridin-6-yl)(quinolin-2-yl)methanone], 0.282 µM.
In the case of `Cn1nc2c(c1-c1ccccc1)CCN(C(=O)c1cnc3ccccc3c1)C2` [Example 95, (2-Methyl-3-phenyl-2,4,5,7-tetrahydro-6H-pyrazolo[3,4-c]pyridin-6-yl)(quinolin-3-yl)methanone] it was 0.984 µM.
Regarding `Cn1nc2c(c1-c1ccccc1)CCN(C(=O)c1ccnc3c(F)cccc13)C2` [Example 96, (8-Fluoroquinolin-4-yl)(2-methyl-3-phenyl-2,4,5,7-tetrahydro-6H-pyrazolo[3,4-c]pyridin-6-yl)methanone], it took 0.258 µM to reach half-maximal inhibition (IC50).
In the case of `Cn1nc2c(c1-c1ccccc1)CCN(C(=O)c1cccc3nccnc13)C2` [Example 97, (2-Methyl-3-phenyl-2,4,5,7-tetrahydro-6H-pyrazolo[3,4-c]pyridin-6-yl)(quinoxalin-5-yl)methanone] it was 4.26 µM; in that of `Cn1nc2c(c1-c1cccc(OC(F)F)c1)CCN(C(=O)c1ccc3ncccc3c1)C2` [Example 98, (3-(3-(Difluoromethoxy)phenyl)-2-methyl-2,4,5,7-tetrahydro-6H-pyrazolo[3,4-c]pyridin-6-yl)(quinolin-6-yl)methanone], 0.973 µM.
